The target of series [1] is T1, CFTR (Homo sapiens, UniProt P13569, DEL508-508).
T1 construct: In human bronchial epithelial (HBE) cells studied in vitro; endogenous in cells; host or cells: human bronchial epithelial (HBE) cells
The series is described as follows: CFTR chloride transport in human bronchial epithelial (HBE) cells in vitro (Example 7). Type of series: cell-based.

The target in series [2] is T2, F508del-CFTR (Homo sapiens, UniProt P13569, DEL508-508). The series is described as follows: Ussing chamber assay, chloride transport in F508del/F508del-HBE cells. Type of series: cell-based. Also on record: CF-HBE cells were isolated from patients homozygous for F508del (F508del/F508del-HBE); endogenous in cells; host or cells: primary F508del/F508del-HBE cells from bronchial tissue of CF patients. The procedure:
Ussing chamber experiments were performed on polarized airway epithelial cells expressing F508del to further characterize the F508del modulators identified in the optical assay above. Non-CF and CF airway epithelia were isolated from bronchial tissue, cultured using methods well known in the art, and plated onto Costar® Snapwell™ filters that were precoated with NIH3T3-conditioned media. After four days the apical media was removed and the cells were grown at an air liquid interface for >14 days prior to use. […] CF-HBE cells were isolated from patients homozygous for F508del (F508del/F508del-HBE) or heterozygous for F508del and a mutation associated with minimal CF transmembrane conductance regulator (CFTR) function (MF) that is not expected to respond to Compound II, Compound III, Compound III-d, and the combination of Compound II and III, or Compound II and III-d (F508del/MF-HBE).
HBE cells grown on Costar® Snapwell™ cell culture inserts were mounted in an Ussing chamber (Physiologic Instruments, Inc., San Diego, Calif.), and the transepithelial resistance and short-circuit current in the presence of a basolateral to apical Cl^− gradient (ISC) were measured using a voltage-clamp system (Department of Bioengineering, University of Iowa, Iowa). Briefly, HBE cells were examined under voltage-clamp recording conditions (Vhold=0 mV) at 37° C. The basolateral solution contained (in mM) 145 NaCl, 0.83 K2HPO4, 3.3 KH2PO4, 1.2 MgCl2, 1.2 CaCl2, 10 Glucose, 10 HEPES (pH adjusted to 7.35 with NaOH) and the apical solution contained (in mM) 145 NaGluconate, 1.2 MgCl2, 1.2 CaCl2, 10 glucose, 10 HEPES (pH adjusted to 7.35 with NaOH).
Ussing Chamber Assay Procedure
A basolateral to apical membrane Cl^− concentration gradient was set up as follows. Normal Ringer's solution was used on the basolateral membrane, whereas apical NaCl was replaced by equimolar sodium gluconate (titrated to pH 7.4 with NaOH) to give a large Cl^− concentration gradient across the epithelium. […] Chloride current was measured to assess the increase in functional CFTR in the cell membrane. […]

A short description of series [3]: Compound I monotherapy safety in healthy subjects. The class given is in vivo, human. As to conditions: multiple doses up to 400 mg qd for 10 days.
Series [4] addresses T2, F508del-CFTR. Description: Membrane potential optical assay (F508del-CFTR correction). The following applies: NIH3T3 mouse fibroblasts stably expressing F508del, 18-24 hours. Also noted: expressed in transfected cells. Type of series: cell-based. An excerpt: Membrane Potential Optical Methods for Assaying Properties of F508del-CFTR Modulators
An optical assay was employed to measure changes in membrane potential to determine the CFTR modulator properties of compounds. The assay utilized fluorescent voltage sensing dyes to measure changes in membrane potential using a fluorescent plate reader (e.g., FLIPR III, Molecular Devices, Inc.) as a readout for increase in functional F508del in NIH 3T3 cells. The driving force for the response was the creation of a chloride ion gradient in conjunction with channel activation and concurrent with compound treatment by a single liquid addition step after the cells had previously been loaded with a voltage sensing dye.
NIH3T3 mouse fibroblasts stably expressing F508del were used for optical measurements of membrane potential. The cells were maintained at 37° C. in 5% CO2 and 90% humidity in Dulbecco's modified Eagle's medium supplemented with 2 mM glutamine, 10% fetal bovine serum, 1×NEAA, β-ME, 1× pen/strep, and 25 mM HEPES in 175 cm^2 culture flasks. […] The cells were then activated and treated with Compound I. After 18-24 hours, fluorescence from the voltage sensing dye in the cells was measured to assess changes in the membrane potential as a read out for increase in functional F508del CFTR in the NIH3T3 cells.

Series [5] deals with T2, F508del-CFTR. The series is described as follows: F508del-CFTR processing and trafficking (170 to 180 kDa band) in F508del/F508del-HBE cells. The class given is cell-based. Also noted: CF-HBE cells were isolated from patients homozygous for F508del (F508del/F508del-HBE); endogenous in cells; host or cells: primary F508del/F508del-HBE cells from bronchial tissue of CF patients. From the text: The CFTR protein delivered to the cell surface by Compound I alone or in combination with Compound II (Compound I/Compound II) was potentiated by Compound III.

Series [6] is described as follows: Preclinical reproductive toxicology studies. Type of series: in vivo.

Molecules are shown by their SMILES. “Also recorded” adds a separate entry of the source. Where only a bound is given, the exact number is not on record here.

T2 sequence (P13569 with tags, fused parts or gaps DEL508-508): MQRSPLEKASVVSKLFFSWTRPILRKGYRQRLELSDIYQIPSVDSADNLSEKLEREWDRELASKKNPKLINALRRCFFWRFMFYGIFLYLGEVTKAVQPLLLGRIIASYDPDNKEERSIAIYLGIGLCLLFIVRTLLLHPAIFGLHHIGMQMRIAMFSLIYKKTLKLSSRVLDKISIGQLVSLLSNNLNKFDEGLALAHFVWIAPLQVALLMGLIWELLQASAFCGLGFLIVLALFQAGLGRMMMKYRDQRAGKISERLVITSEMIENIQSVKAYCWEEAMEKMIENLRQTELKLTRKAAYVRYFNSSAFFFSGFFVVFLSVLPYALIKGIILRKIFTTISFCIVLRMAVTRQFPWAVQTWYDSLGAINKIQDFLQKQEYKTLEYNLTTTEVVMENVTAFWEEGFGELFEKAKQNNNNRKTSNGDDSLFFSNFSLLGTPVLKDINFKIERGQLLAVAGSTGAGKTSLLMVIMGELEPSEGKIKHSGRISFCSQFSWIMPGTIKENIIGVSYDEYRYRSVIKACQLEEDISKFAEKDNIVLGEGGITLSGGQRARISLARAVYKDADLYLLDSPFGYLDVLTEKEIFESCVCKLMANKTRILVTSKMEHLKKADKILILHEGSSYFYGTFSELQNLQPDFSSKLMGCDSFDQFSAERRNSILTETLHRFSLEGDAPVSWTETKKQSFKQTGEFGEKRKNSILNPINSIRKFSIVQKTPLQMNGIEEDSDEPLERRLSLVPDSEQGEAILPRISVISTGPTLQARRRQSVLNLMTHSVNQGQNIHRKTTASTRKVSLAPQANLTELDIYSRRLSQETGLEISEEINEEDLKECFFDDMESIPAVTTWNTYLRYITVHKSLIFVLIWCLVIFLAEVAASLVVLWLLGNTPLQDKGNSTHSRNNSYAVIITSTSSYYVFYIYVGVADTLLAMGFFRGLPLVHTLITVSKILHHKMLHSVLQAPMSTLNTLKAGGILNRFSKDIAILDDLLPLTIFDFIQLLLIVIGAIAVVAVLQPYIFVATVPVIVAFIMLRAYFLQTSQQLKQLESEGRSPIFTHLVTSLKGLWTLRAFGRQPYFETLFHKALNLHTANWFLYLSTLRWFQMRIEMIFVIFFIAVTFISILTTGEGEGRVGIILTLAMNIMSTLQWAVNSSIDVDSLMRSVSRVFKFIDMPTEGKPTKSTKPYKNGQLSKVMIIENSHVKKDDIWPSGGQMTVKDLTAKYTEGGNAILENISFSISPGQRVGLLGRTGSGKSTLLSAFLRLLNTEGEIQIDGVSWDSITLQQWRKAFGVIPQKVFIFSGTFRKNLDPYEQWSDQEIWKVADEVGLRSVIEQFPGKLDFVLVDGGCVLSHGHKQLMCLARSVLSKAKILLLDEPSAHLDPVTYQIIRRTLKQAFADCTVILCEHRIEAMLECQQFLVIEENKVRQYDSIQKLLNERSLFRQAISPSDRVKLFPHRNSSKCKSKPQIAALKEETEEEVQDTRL
T1 sequence (P13569 with tags, fused parts or gaps DEL508-508): as above

Regarding `CC(C)(C)c1cc(C(C)(C)C)c(NC(=O)c2c[nH]c3ccccc3c2=O)cc1O` [Compound III, N-(5-hydroxy-2,4-di-tert-butyl-phenyl)-4-oxo-1H-quinoline-3-carboxamide, reference compound], in series [1], the “potentiation of CFTR protein delivered to the cell surface by Compound I alone or with Compound II” value is given as “potentiated”. Further, the “potentiation of F508del-CFTR delivered to the cell surface by Compound I alone or with Compound II” value in series [2] is “potentiated”.

The EC50 is the concentration at which the effect is half-maximal. For the compound `C[C@@H]1CN(c2nc(-n3ccc(OCCC4(C(F)(F)F)CC4)n3)ccc2C(=O)NS(=O)(=O)c2ccccc2)C(C)(C)C1` [Compound I, N-(benzenesulfonyl)-6-[3-[2-[1-(trifluoromethyl)cyclopropyl]ethoxy]pyrazol-1-yl]-2-[(4(S))-2,2,4-trimethylpyrrolidin-1-yl]pyridine-3-carboxamide], the safety and tolerability entry in series [3] was “safe and well tolerated”. In series [4], this compound displayed a half-maximal effective concentration (EC50) of less than 3 µM. Besides, the Emax in series [4] (read-out: % Efficacy relative to Compound II) is no less than 100%. Besides, the “steady-state levels, fold of untreated levels” value in series [5] (F508del/F508del-HBE cells, 16 to 24 hours, 1 μM Compound I alone) amounted to 6.5 fold. Moreover, the “processing and trafficking of F508del-CFTR” value in series [5] (in vitro) is “improved the processing and trafficking of F508del-CFTR; also recorded: facilitates the processing and trafficking of F508del-CFTR”. In addition, in series [6], the reproductive toxicology findings entry is on record as “no adverse findings of note”. Moreover, in series [2], the chloride transport entry is on record as “enhanced chloride transport” and the “effect on chloride transport in relation to the effect of Compound II” value was “additive to the effect of Compound II”.

The record behind these values is US11253509B2, “Methods of treatment for cystic fibrosis” (Vertex Pharmaceuticals Incorporated, priority 2017, dated 2022).
